{"source": "patent US10125097B2", "about": "“1- [1-(benzoyl)-pyrrolidine-2-carbonyl]-pyrrolidine-2-carbonitrile derivatives” (UNIVERSITAT DE BARCELONA, priority 2012, dated 2018)", "key": {"[1]": {"test_system": "MK-801-treated rodents", "assay": "Novel object recognition (NOR) task in MK-801 cognition impairment model", "format": "in vivo, rodents (mice or rats)", "settings": "5 mg/Kg s.c.; MK-801 0.2 mg/kg i.p.; FIG. 1", "experimental": "(§1) The new compounds were evaluated for their efficacy as cognition enhancers in a pharmacological model for cognitive impairment. The effects of the new compounds were evaluated in untreated and MK-801-treated rodents (mice or rats). MK-801 is a non-competitive antagonist of the N-Methyl-D-aspartate (NMDA) receptor which impairs animal performance in various learning and memory paradigms (Castellano C et al., Curr. Drug Targets 2001; 2:273-83; Riedel G et al., Behav. Brain Res. 2003; 140:1-47). MK-801 also produces various effects on rodent behavior, including deficits in sensory processing, hypermotility, stereotypy and ataxia. […]\nThe novel object recognition (NOR) task is based on the natural preference of rodents to explore novel objects (Ennaceur A et al., Behav. Brain Res. 1988; 31:47-59). […] The animals were then allowed to explore freely for 10 min, and the time spent exploring each object was recorded. […] An index of discrimination was calculated as follows: time spent exploring the new object minus time spent exploring the old object, divided by the total time exploring both objects, and multiplied by 100. […]"}, "[2]": {"test_system": "MK-801-treated rodents", "assay": "Passive avoidance task in MK-801 cognition impairment model", "format": "in vivo, rodents (mice or rats)", "settings": "5 mg/Kg s.c. 35 min before shock session; MK-801 0.2 mg/kg i.p.; FIG. 2", "experimental": "as §1\nFor the evaluation of the passive avoidance task, a two-compartment box with a light compartment and a dark compartment of the same dimensions was used. […] In the evaluation session, the time which the animal takes to enter the dark compartment (in seconds) was measured, as a sign of memory retention of the shock received in the dark compartment during the previous session. […] The corresponding evaluated compound was injected s.c. 35 min before the shock session, followed 15 minutes later by i.p. injection of MK-801, or PBS in the case of the control, in the same doses and volume as described for the object recognition test."}}}
{"smiles": "COc1cc(C(=O)N2CC(F)(F)C[C@H]2C(=O)N2CCC[C@H]2C#N)cc(OC)c1OCc1ccccc1", "note": "[Example 4, (S)-1-((2S)-1-(4-(benzyloxy)-3,5-dimethoxybenzoyl)-4,4-difluoropyrrolidine-2-carbonyl)pyrrolidine-2-carbonitrile]", "values": [{"measurement": "Reversal of MK-801-induced memory impairment in the NOR test", "setting": "[1]", "value": "able to reverse MK-801-induced memory impairment"}, {"measurement": "Reversal of MK-801-induced memory impairment in the passive avoidance test (latency to enter dark compartment)", "setting": "[2]", "value": "able to reverse MK-801-induced memory impairment"}]}
